Laboratory results as given in PMC11855827, “High-Throughput Screening of Five Compound Libraries for Anthelmintic Activity and Toxicity Leads to the Discovery of Two Flavonoid Compounds” (International Journal of Molecular Sciences, 2025).
Values joined by “and” are separate entries in the source; they are usually repeats but may differ in a detail not shown here. Identical values can stand only once. Like-named read-outs stand apart in the source and are kept apart here.

System: C. elegans
[1] = Table S2, C. elegans SS assay, 110 μM, 0 h, averages of 4 data points
[2] = Table S2, C. elegans SS assay, 110 μM, 24 h, averages of 4 data points

Structure (SMILES) | Percentage of motility inhibition 0 h [1] | Percentage of motility inhibition 24 h [2] | Percentage of motility inhibition 0 h (110 µM) | Percentage of motility inhibition 24 h (110 µM)
CC1(C)[C@@H](O[C@@H]2OC[C@H](O[C@@H]3O[C@H](CO)[C@@H](O)[C@H](O)[C@H]3O[C@@H]3OC[C@@H](O)[C@H](O)[C@H]3O)[C@H](O)[C@H]2O[C@@H]2O[C@H](CO)[C@@H](O)[C@H](O)[C@H]2O)CC[C@]2(C)[C@H]3CC[C@]45OC[C@@]6(CC[C@](C)(C=O)C[C@H]64)[C@H](O)C[C@@]5(C)[C@]3(C)CC[C@@H]12 [Ardisiacrispin A] | 22% | 0% |  | 
CN1CCC=C(C(=O)O)C1.Cl [Arecaidine (hydrochloride)] | 7% | 6% |  | 
CN1CCC=C(C(=O)O)C1 [Arecaidine] | 16% | 0% |  | 
COc1cccc2c1cc([N+](=O)[O-])c1c(C(=O)O)cc3c(c12)OCO3 [Aristolochic acid A] |  | 22% and 11% |  | 
CC1(C)CC[C@]2(C(=O)O[C@@H]3O[C@H](CO)[C@@H](O)[C@H](O)[C@H]3O)CC[C@]3(C)C(=CC[C@@H]4[C@@]5(C)C[C@@H](O)[C@H](O)C(C)(C)[C@@H]5CC[C@]43C)[C@@H]2[C@@H]1O [Arjunetin] | 0% | 18% |  | 
COc1cc2c(cc1OC)C(Cc1ccc(O)cc1)N(C)CC2 (centres unmarked) [Armepavine] | 0% | 12% |  | 
CC(=O)c1cc2c(CO)cc(O)cc2oc1=O [Armillarisin A] | 0% | 4% |  | 
C=C(C)C(=O)O[C@H]1[C@@H]2[C@H](C)C(=O)O[C@@H]2C[C@@H](C)[C@@H]2C=CC(=O)[C@]21C [Arnicolide D] | 16% | 25% |  | 
C=C1CC[C@@]2(C)[C@H]([C@@H]1C)[C@H]1CC[C@@H]3[C@@]4(C)CC[C@H](O)C(C)(C)[C@@H]4CC[C@@]3(C)[C@]1(C)C[C@@H]2O [Arnidiol] | 12% | 57% |  | 
C=C(C(=O)O)[C@@H]1CC[C@@H](C)[C@@H]2CCC(C)=C[C@@H]21 [Artemisic acid] | 1% | 14% |  | 
C[C@@H]1CC[C@H]2[C@@H](C)C(=O)O[C@@H]3O[C@@]4(C)CC[C@@H]1[C@]32OO4 [Artemisinin] |  | 9% and 0% |  | 
COc1ccc(-c2oc3cc(OC)c(OC)c(O)c3c(=O)c2OC)cc1OC [Artemitin] | 0% | 20% |  | 
CCO[C@H]1O[C@@H]2O[C@@]3(C)CC[C@H]4[C@H](C)CC[C@@H]([C@H]1C)[C@@]24OO3 [Artemotil] |  | 0% and 2% |  | 
CC1(C)CC[C@]2(C(=O)O[C@@H]3O[C@H](CO[C@@H]4O[C@H](CO)[C@@H](O)[C@H](O)[C@H]4O)[C@@H](O)[C@H](O)[C@H]3O)CC[C@]3(C)C(=CC[C@@H]4[C@@]5(C)CC[C@H](O[C@@H]6OC[C@H](O)[C@H](O)[C@H]6O)[C@@](C)(CO)[C@@H]5CC[C@]43C)[C@@H]2C1 [Asperosaponin VI] | 0% | 2% |  | 
CC(C)(O)[C@@H]1CC[C@](C)([C@H]2[C@@H](O)C[C@@]3(C)[C@@H]4C[C@H](O)[C@H]5C(C)(C)[C@@H](O[C@@H]6OC[C@@H](O)[C@H](O)[C@H]6O[C@@H]6O[C@H](CO)[C@@H](O)[C@H](O)[C@H]6O)CC[C@@]56C[C@@]46CC[C@]23C)O1 [Astragaloside III] | 0% | 35% |  | 
CC(=O)O[C@H]1[C@H](O[C@H]2CC[C@]34C[C@]35CC[C@]3(C)[C@@H]([C@@]6(C)CC[C@@H](C(C)(C)O)O6)[C@@H](O)C[C@@]3(C)[C@@H]5C[C@H](O[C@@H]3O[C@H](CO)[C@@H](O)[C@H](O)[C@H]3O)[C@H]4C2(C)C)OC[C@@H](O)[C@@H]1O [Astragaloside II] | 5% | 45% |  | 
CC(C)(O)[C@@H]1CC[C@](C)([C@H]2[C@@H](O)C[C@@]3(C)[C@@H]4C[C@H](O[C@@H]5O[C@H](CO)[C@@H](O)[C@H](O)[C@H]5O)[C@H]5C(C)(C)[C@@H](O[C@@H]6OC[C@@H](O)[C@H](O)[C@H]6O)CC[C@@]56C[C@@]46CC[C@]23C)O1 [Astragaloside IV] | 10% | 0% |  | 
CC(C)(O)[C@@H]1CC[C@](C)([C@H]2[C@@H](O)C[C@@]3(C)[C@@H]4C[C@H](O[C@@H]5O[C@H](CO)[C@@H](O)[C@H](O)[C@H]5O)[C@H]5C(C)(C)[C@@H](O[C@@H]6OC[C@@H](O)[C@H](O)[C@H]6O[C@@H]6O[C@H](CO)[C@@H](O)[C@H](O)[C@H]6O)CC[C@@]56C[C@@]46CC[C@]23C)O1 [Astragaloside VI] | 3% | 0% |  | 
CC(C)(O)[C@@H]1CC[C@](C)([C@H]2[C@@H](O)C[C@@]3(C)[C@@H]4C[C@H](O)[C@H]5C(C)(C)[C@@H](O)CC[C@]5(C)C4=CC[C@]23C)O1 [Astragenol] | 50% | 50% |  | 

Structure (SMILES) | Percentage of motility inhibition 0 h [1] | Percentage of motility inhibition 24 h [2] | Percentage of motility inhibition 0 h (110 µM) | Percentage of motility inhibition 24 h (110 µM)
COC(=O)N[C@H](C(=O)N[C@@H](Cc1ccccc1)[C@@H](O)CN(Cc1ccc(-c2ccccn2)cc1)NC(=O)[C@@H](NC(=O)OC)C(C)(C)C)C(C)(C)C.O=S(=O)(O)O [Atazanavir (sulfate)] | 3% | 4% |  | 
C=C1[C@@H]2CCC3[C@@](CC[C@@H]4[C@H](C(=O)O)C[C@@H](O[C@@H]5O[C@H](CO)[C@@H](OS(=O)(=O)[O-])[C@H](OS(=O)(=O)[O-])[C@H]5OC(=O)CC(C)C)C[C@@]34C)(C2)[C@@H]1O.[K+].[K+] (some centres unmarked) [Atractyloside (potassium salt)] | 29% | 45% |  | 
CC(C)(O[C@@H]1O[C@H](CO)[C@@H](O)[C@H](O)[C@H]1O)[C@@H]1CC[C@](O)(CO)[C@H]2CC(=O)[C@@](C)(O)[C@@H]2C1 [Atractyloside A] | 13% | 28% |  | 
CN1[C@@H]2CC[C@H]1C[C@@H](OC(=O)C(CO)c1ccccc1)C2 (some centres unmarked) [Atropine] |  |  | 3% and 0% | 3% and 8%
O=C(N[C@@H](Cc1ccccc1)C(=O)N[C@H](CO)Cc1ccccc1)c1ccccc1 [Aurantiamide] | 0% | 15% |  | 
NC(=O)[C@@H]1CC[C@@H]2CN1C(=O)N2OS(=O)(=O)[O-].[Na+] [Avibactam (sodium hydrate)] | 37% | 3% |  | 
NC(=O)[C@@H]1CC[C@@H]2CN1C(=O)N2OS(=O)(=O)[O-].[Na+] [Avibactam (sodium)] | 0% | 8% |  | 
CC[C@H]1OC(=O)[C@H](C)[C@@H](O[C@H]2C[C@@](C)(OC)[C@@H](O)[C@H](C)O2)[C@H](C)[C@@H](O[C@@H]2O[C@H](C)C[C@H](N(C)C)[C@H]2O)[C@](C)(O)C[C@@H](C)CN[C@H](C)[C@@H](O)[C@]1(C)O [Azathramycin] | 11% | 10% |  | 
CC1(C)S[C@@H]2[C@H](NC(=O)[C@H](NC(=O)N3CCNC3=O)c3ccccc3)C(=O)N2[C@H]1C(=O)[O-].[Na+] [Azlocillin (sodium salt)] | 31% | 0% |  | 
Cc1nc(N(C)C(=O)Cc2ccc(-c3ccccn3)cc2)sc1S(N)(=O)=O [BAY 57‐1293] | 36% | 0% |  | 
COc1ccnc2[nH]cc(C(=O)C(=O)N3CCN(C(=O)c4ccccc4)C[C@H]3C)c12 [BMS‐378806] | 47% | 41% |  | 
CC(C)=C[C@@H]1CO[C@]23C[C@]4(CO2)[C@H](CC[C@@H]2[C@@]5(C)CC[C@H](O[C@@H]6OC[C@H](O)[C@H](O[C@@H]7O[C@H](CO)[C@@H](O)[C@H](O)[C@H]7O)[C@H]6O[C@@H]6O[C@@H](CO)[C@H](O)[C@H]6O)C(C)(C)[C@@H]5CC[C@]24C)[C@H]3[C@@]1(C)O [Bacopasaponin C] | 6% | 40% |  | 
CC(C)=C[C@@H]1CO[C@]23C[C@@]4(CO2)[C@@H](CC[C@@H]2[C@@]5(C)CC[C@H](O[C@H]6OC[C@H](O)[C@H](O[C@H]7O[C@H](COS(=O)(=O)O)[C@@H](O)[C@H](O)[C@H]7O)[C@H]6O[C@@H]6O[C@@H](CO)[C@H](O)[C@H]6O)C(C)(C)[C@@H]5CC[C@]24C)[C@H]3[C@@]1(C)O [Bacopaside I] | 19% | 0% |  | 
CC(C)=C[C@H]1C[C@](C)(O)[C@@H]2[C@H]3CC[C@@H]4[C@@]5(C)CC[C@H](O[C@@H]6OC[C@H](O)[C@H](O[C@@H]7O[C@H](CO)[C@@H](O)[C@H](O)[C@H]7O)[C@H]6O[C@@H]6O[C@@H](CO)[C@H](O)[C@H]6O)C(C)(C)[C@@H]5CC[C@@]4(C)[C@@]34CO[C@@]2(C4)O1 [Bacopaside X] | 9% | 35% |  | 
O=c1c(O[C@@H]2O[C@H](CO)[C@@H](O)[C@H](O)[C@H]2O[C@@H]2O[C@H](CO)[C@@H](O)[C@H](O)[C@H]2O)c(-c2ccc(O)c(O)c2)oc2cc(O)cc(O)c12 [Baimaside] | 13% | 0% |  | 
COc1ccc(-c2oc3c(CC=C(C)C)c(O)cc(O)c3c(=O)c2O[C@@H]2O[C@@H](C)[C@H](O)[C@@H](O)[C@H]2O)cc1 [Baohuoside I] | 0% | 0% |  | 
CC(C)=CCc1cc(C(=O)/C=C/c2ccc(O)cc2)c(O)cc1O [Bavachalcone] | 39% | 18% |  | 
CC1(C)CC[C@]2(C(=O)O)CC[C@]3(C)C(=CC[C@@H]4[C@@]5(C)C[C@H](O)[C@H](O)[C@@](C)(CO)[C@@H]5CC[C@]43C)[C@@H]2C1 [Bayogenin] | 2% | 5% |  | 
